Where no end group is shown, it is not given here.
Experiments:
[1] = Oral sucrose tolerance test (glucose control) on Day 4 in diabetic ZDF rats; type: in vivo, Male ZDF-Leprfa/Crl (diabetic fa/fa) rats; settings: po daily 4 days, oral sucrose tolerance test Day 4
Protocol: (§1) Male ZDF-Leprfa/Crl (diabetic fa/fa) rats fed standard chow are allocated (n=10/group) based on body weight and fasting plasma glucose (FPG). […] An oral sucrose tolerance test (4 g/kg po) is performed on Day 4 and body weight is recorded daily.

[2] = Overall body weight in diabetic ZDF rats dosed daily for 4 days; type: in vivo, Male ZDF-Leprfa/Crl (diabetic fa/fa) rats; settings: po daily 4 days
Protocol: as §1

[3] = Acute nocturnal food intake in normal-weight rats; type: in vivo, rat; settings: linagliptin 0.5 mg/kg sc BID, GLP-1 0.4 mg/kg sc BID
Description: (§2) This anti-obesity effect is caused by appetite suppression and change in diet preference, presumably associated with increased dynorphin activity in dopaminergic forebrain regions involved in reward anticipation and habit learning.

[4] = test system: active GLP-1; assay: Plasma active GLP-1 5 min after sucrose load in diabetic ZDF rats; type: in vivo, Male ZDF-Leprfa/Crl (diabetic fa/fa) rats; settings: 5 min after the sucrose load
Protocol: as §1

[5] = Diet-induced obese (DIO) rats: body weight, food intake, diet preference; type: in vivo, rat; settings: 14 days of monotherapy
Description: as §2

[6] = Pharmacokinetics of BI 1356 after multiple oral doses once daily for 12 days in patients with type 2 diabetes; settings: for fe0-24 / feτ, ss: gMean; for feτ, ss: steady state (Day 12)
[7] = Safety and tolerability in people with type 2 diabetes
[8] = S1: linagliptin 1 mg/kg, high-dose voglibose 10 mg/kg
[9] = S2: linagliptin 1 mg/kg, low-dose voglibose 1 mg/kg
[10] = S1: linagliptin 1 mg/kg, voglibose 10 mg/kg
[11] = S2: linagliptin 1 mg/kg, voglibose 1 mg/kg

Compound | glucose control compared with vehicle [1, 8] | glucose control compared with vehicle [1, 9] | change in overall weight compared with vehicle [2, 10] | change in overall weight compared with vehicle [2, 11] | nocturnal food intake [3] | plasma active GLP-1 increase compared with vehicle ([4]; S1 (voglibose 10 mg/kg)) | plasma active GLP-1 increase compared with vehicle ([4]; S2 (voglibose 1 mg/kg)) | body weight [5] | mean accumulation ratio RA,AUC ([6]; doses above 1 mg) | fe0-24 ([6]; 2.5 mg oral once daily) | fe0-24 ([6]; 5 mg oral once daily) | fe0-24 ([6]; 10 mg oral once daily) | feτ, ss ([6]; 1 mg oral once daily) | feτ, ss ([6]; 2.5 mg oral once daily) | feτ, ss ([6]; 5 mg oral once daily) | feτ, ss ([6]; 10 mg oral once daily) | form and route of excretion ([6]; human, in vivo) | excreted via the kidney ([6]; therapeutic oral dose levels) | main route of excretion ([6]; therapeutic oral dose levels) | safety and tolerability [7]
OCC(CO)N[C@H]1C[C@](O)(CO)[C@@H](O)[C@H](O)[C@H]1O [voglibose, reference compound] | −33% | −18% | −3.0% | −1.7% | – | – | – | – | – | – | – | – | – | – | – | – | – | – | – | –
CC#CCn1c(N2CCC[C@@H](N)C2)nc2c1c(=O)n(Cc1nc(C)c3ccccc3n1)c(=O)n2C [BI 1356] | −10% | −17% | +0.7% | −0.2% | no effect | 160% | 144% | no effect | ≤ 1.4 | 0.139% | 0.453% | 0.919% | 3.34% | 3.06% | 6.27% | 3.22% | primarily excreted unchanged via the bile | < 7 % of the administered oral dose | mainly excreted via the liver | placebo-like safety and tolerability
GLP-1: native GLP-1(7-36), short acting GLP-1 receptor agonist (HAEGTFTSDVSSYLEGQAAKEFIAWLVKGR; ends and bridges not checked; UniProt P01275 98-127, looked up, fragment) [reference compound] | – | – | – | – | modest and short-lived suppression | – | – | no effect | – | – | – | – | – | – | – | – | – | – | – | –
